Results: PubChem BioAssay (NCI)
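Dose response: 5 concentrations. Exposure: 48 h. Format: 96-well plates. Endpoint: linear interpolation; highest concentration if not reached. At the TGI there is no net growth.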

What was measured:
Experiment in all cases: growth of human tumour cells (NCI), 48 h
LOX IMVI melanoma = tested on: LOX IMVI melanoma
OVCAR-5 ovarian = tested on: OVCAR-5 ovarian
A498 renal = tested on: A498 renal
T-47D breast = tested on: T-47D breast
ACHN renal = tested on: ACHN renal
SK-MEL-28 melanoma = tested on: SK-MEL-28 melanoma
SN12C renal = tested on: SN12C renal
NCI-H226 lung = tested on: NCI-H226 lung
M14 melanoma = tested on: M14 melanoma
HS 578T breast = tested on: HS 578T breast
MOLT-4 leukemia = tested on: MOLT-4 leukemia
SK-OV-3 ovarian = tested on: SK-OV-3 ovarian
EKVX NSCLC = tested on: EKVX NSCLC
MDA-N = tested on: MDA-N
UO-31 renal = tested on: UO-31 renal
OVCAR-8 ovarian = tested on: OVCAR-8 ovarian
SR leukemia = tested on: SR leukemia
CAKI-1 renal = tested on: CAKI-1 renal
IGROV1 ovarian = tested on: IGROV1 ovarian
K-562 leukemia = tested on: K-562 leukemia

| Structure (SMILES) | TGI (LOX IMVI melanoma) [µM] | TGI (OVCAR-5 ovarian) [µM] | TGI (A498 renal) [µM] | TGI (T-47D breast) [µM] | TGI (ACHN renal) [µM] | TGI (SK-MEL-28 melanoma) [µM] | TGI (SN12C renal) [µM] | TGI (NCI-H226 lung) [µM] | TGI (M14 melanoma) [µM] | TGI (HS 578T breast) [µM] | TGI (MOLT-4 leukemia) [µM] | TGI (SK-OV-3 ovarian) [µM] | TGI (EKVX NSCLC) [µM] | TGI (MDA-N) [µM] | TGI (UO-31 renal) [µM] | TGI (OVCAR-8 ovarian) [µM] | TGI (SR leukemia) [µM] | TGI (CAKI-1 renal) [µM] | TGI (IGROV1 ovarian) [µM] | TGI (K-562 leukemia) [µM] |
| --- | --- | --- | --- | --- | --- | --- | --- | --- | --- | --- | --- | --- | --- | --- | --- | --- | --- | --- | --- | --- |
| CCC/C(Cl)=N/OC(=O)Nc1cc(C(F)(F)F)ccc1OC | 16.2 | 32.1 | 28.4 | 15.6 | 26.1 | 28.3 | 27.4 | 30.8 | 21.4 | > 72.2 | 6.01 | 21.8 | 19.9 | 25 | 29.9 | 29.8 | 13.5 | 9.01 | 30.7 |  |
| C/C=C(/C)C(=O)O[C@H]1[C@H]2[C@@H]([C@@H](OC(C)=O)[C@H](C)C(=O)[C@@]34C[C@@H](C)C(=O)[C@]3(/C=C(\C)[C@H]1OC(C)=O)O4)C2(C)C | 6.27 | 7.77 | 16 | 5.74 | 7.05 |  | 5.33 | 6.56 | 5.22 | 19.7 | 6.46 | > 20 | 17.1 | 4.94 | 16 | 6.54 | 7.34 | 10 | 9.96 | 8.43 |
| CNC(=O)C1(C#N)C(c2ccccc2)C(C#N)(C(=O)NC)C1c1ccccc1 (stereo not drawn) | > 100 | > 100 | > 100 | > 100 | > 100 | > 100 | > 100 | > 100 | > 100 | > 100 | > 100 | > 100 | > 100 | > 100 | > 100 | > 100 | > 100 | > 100 | > 100 | > 100 |
| Cn1c(=O)c2nc3c(=O)n(C)c(=O)n(CC(N)=O)c3nc2n(C)c1=O | > 100 | > 100 | > 100 | > 100 | > 100 | > 100 | > 100 | > 100 | > 100 | > 100 |  | > 100 | > 100 | > 100 | > 100 | > 100 | > 100 | > 100 | > 100 | > 100 |
| O/N=C(/CC(O)(C(F)(F)F)C(F)(F)F)c1ccccc1 | > 10 | > 10 | > 10 | > 10 | > 10 | > 10 | > 10 | > 10 | > 10 | > 10 | > 10 | > 10 | > 10 | > 10 |  | > 10 | > 10 | > 10 | > 10 | > 10 |
| N#CC(C#N)=C/C=C/c1c(Cl)cccc1Cl | 3.36 |  | 6.49 | 6.19 | 3.19 | 3.05 | 3.9 | 7.05 | 3.06 | 5.55 | 9.01 | 5.64 | > 10 | 3.23 | 3.39 | 3.48 | > 10 | 4.55 | 4.27 | 8.56 |
| O=S1(=O)c2ccccc2C(Nc2ccccc2)N1c1ccccc1 (stereo not drawn) | > 100 | > 100 | > 100 | 80 | > 100 | > 100 | > 100 | > 100 |  | > 100 | > 100 | > 100 | > 100 | > 100 | > 100 | > 100 | > 100 | > 100 | > 100 | > 100 |
| CCOC(=O)Cn1c2ccc(Br)cc2c2nc3ccccc3nc21 | > 100 | > 100 | > 100 | > 100 | > 100 | > 100 | > 100 | > 100 | > 100 | > 100 | > 100 |  |  | > 100 | > 100 | > 100 | > 100 | > 100 | > 100 | > 100 |
| CC1C2CC(CC2(C)O)C1(C)C (stereo not drawn) |  | > 100 | > 100 | > 100 | > 100 | > 100 | > 100 | > 100 | > 100 | > 100 | > 100 | > 100 | > 100 | > 100 | > 100 | > 100 | > 100 | > 100 | > 100 | > 100 |
| Cc1c(/C=N/NC(=S)Nc2ccc(Cl)cc2)c(=O)n(-c2ccccc2)n1C | > 100 | > 100 | > 58.8 | > 83.9 | 31.9 | > 100 | > 100 | 53.8 | > 100 | 50.8 | > 100 | 35.8 | > 65.2 | > 100 | > 100 | > 60.6 | > 100 | > 48.3 | 45.2 | > 100 |
| N#Cc1ccc(-c2nc3c(N)nc(-c4ccccc4)nc3o2)cc1 | > 100 | > 100 | > 100 | > 100 | > 100 | > 100 | > 100 | > 100 | > 100 | > 100 | > 100 |  | > 100 | > 100 | > 100 | > 100 | > 100 | > 100 | > 100 | > 100 |
| C=C1[C@H](OCC(C)C)[C@@H](O)[C@@H](OC(=O)c2cccnc2)C(C)(C)/C=C/[C@H](C)[C@H](OC(C)=O)[C@@]2(O)C[C@@](C)(OC(C)=O)[C@H](OC(=O)c3ccccc3)[C@@H]2[C@H]1OC(C)=O | > 5 | > 5 | 2.79 | > 5 | 2.87 | > 5 | > 5 | 4.57 | > 4.49 | > 2.39 | > 2.79 | > 5 | > 5 | > 5 | > 1.24 | > 3.28 | > 3.35 | > 5 | > 5 | > 3.36 |
| CCCC1CC(=O)NC(=O)C1C(=O)OC(C)(C)C (stereo not drawn) | > 100 | > 100 | > 100 | > 100 | > 100 | > 100 | > 100 | > 100 |  | > 100 | > 100 |  | > 100 | > 100 | > 100 | > 100 | > 100 | > 100 | > 100 | > 100 |
| C=C1C[C@@H]2O[C@H]3[C@H]4[C@@H](C[C@@H](C)[C@@H](OC(C)=O)[C@H]42)[C@@H](C)CO[C@@]3(C)[C@H](OC(=O)CCCCCCC)C[C@H]1O | 26.6 | 32 | 30.8 | 24.6 | 35 | 32.7 | 31.1 | 26.1 | 35.2 | 36.4 | 52.7 |  | 31 | 30.3 | 29.7 | 31.4 | 36.3 | 28 | 36 | > 100 |
| CC1(C)C2CCC1(C)C(OC(=O)/C=C/C(=O)OC1CC3CCC1(C)C3(C)C)C2 (stereo not drawn) | 49.9 | > 100 | > 100 | > 100 | > 100 | 40.2 | > 100 |  | > 100 | > 100 | 45.9 |  | > 100 | > 100 | > 100 | > 100 | 55.7 | > 100 | > 100 | > 100 |
| C/C=C/C=C\C=C/C(O)C(C)C(CCC(C)C1OC(=O)C=CC1C)OP(=O)(O)O (stereo not drawn) | 1.09 | 0.574 | 0.404 | 1.46 | 1.26 | 2.12 | 1.11 | 2.02 | 0.685 | 4.28 | 0.613 | 1.68 | 1.54 | 1.32 | 0.93 | 1.26 | 0.511 | 0.314 | 0.694 | 0.905 |
| O=C(NCCCNCCN1C(=O)c2cccc3cc([N+](=O)[O-])cc(c23)C1=O)c1cc(-c2ccccc2)nc2ccccc12 | 2.93 | 18.6 | 8.87 | 23.7 | 14.5 | 3.44 | 17.1 | 24.2 | 3.3 | 12.5 | 6.01 | 21.6 | 22.8 | 2.89 | 7.46 | 17 | 2.1 | 18.9 | 15.2 | 2.5 |
| O=C(O)c1ccccc1CC1Cc2cc3c(cc2C1)CCC3 | > 100 | > 100 | > 100 | 85.6 | > 100 | > 100 | > 100 | > 100 | > 100 | > 100 | > 100 | > 100 | > 100 | > 100 | > 100 | > 100 | > 100 |  | > 100 | > 100 |
| CCOC(=O)C(NC(C)=O)(Nc1ccc(S(N)(=O)=O)cc1)C(F)(F)F (stereo not drawn) | > 100 | > 100 | > 100 | > 100 | > 100 | > 100 | > 100 | > 100 | > 100 | > 100 | > 100 | > 100 | > 100 | > 100 | > 100 | > 100 | > 100 | > 100 | > 100 | > 100 |
| O=c1cc(NNCc2ccccc2)[nH]c(=O)[nH]1 | > 100 | > 100 | > 100 | 67 | > 100 | > 100 | > 100 | > 100 | > 100 | > 100 | > 100 |  | > 100 | > 100 | > 100 | > 100 | > 100 | > 100 | > 100 | > 100 |
| CSc1nn(C)cc2ncnc1-2 |  | > 100 | > 100 | > 100 | > 100 | > 100 | > 100 | > 100 | > 100 | > 100 | > 100 |  | > 100 | > 100 | > 100 | > 100 | > 100 | > 100 | > 100 | > 100 |
| CCOC(=O)CC1(Cc2ccc(OCc3ccccc3)cc2)C(=O)OC(c2ccccc2)N1C(=O)c1ccccc1 (stereo not drawn) | > 100 | > 100 |  | > 100 | > 100 | > 100 | > 100 | > 100 | > 100 | > 100 | > 100 | > 100 | > 100 | > 100 | > 100 | > 100 | > 100 | > 100 | > 100 | > 100 |
| CCOC(=O)c1ccc(C(=O)n2ccnc2)[nH]1 | > 100 | > 100 | > 100 | > 100 | > 100 | > 100 | > 100 | > 100 | > 100 | > 100 | > 100 |  | > 100 | > 100 | > 100 | > 100 | > 100 | > 100 | > 100 | > 100 |
| O=C1C2CCCCC2C(=O)N1n1c(-c2ccccc2)n[nH]c1=O (stereo not drawn) | > 100 | > 100 | > 100 | > 100 | > 100 |  | > 100 | > 100 | > 100 | > 100 | > 100 | > 100 | > 100 | > 100 | > 100 | > 100 | > 100 | > 100 | > 100 | > 100 |
